A word on the EC50: it is the concentration needed to bring the measured effect to its halfway point. In general, IC50 refers to the concentration at which inhibition is half-maximal. What is called solubility is the concentration that dissolves in the medium under given conditions. As a reminder, the Papp A→B is how fast a substance crosses the layer from the apical side. The Papp B→A is the apparent permeability from the basolateral to the apical side of a cell layer.

≈ marks a conversion by molar mass, not a printed value. Read-outs that look alike come from different tables or passages of the source.

One data set concerns SUM149. Put plainly: CellTiter-Glo 72 h cytotoxicity assay, SUM149. In kind it is cell-based. Particulars: Homo sapiens; for EC50: SUM149, CTG assay, 72 h; for IC50: calculated from SUM149 EC50. An excerpt:
(§1) First, topological polar surface area (tPSA), a widely used molecular descriptor that provides insight into compound absorption and membrane penetration, was theoretically calculated for these compounds along with the estimated c log P (partition coefficient) or log P to further assess their global therapeutic potential.[18],[19] Lipophilicity, a measurable and predictable physical property, can provide practical guidance in designing compounds with improved molecular properties.[20] The tPSA sums the contribution of the surface area of polar atoms, enabling us to determine whether the compounds are more likely to be cell membrane permeable. The aqueous solubility was measured by ultraviolet/visible (UV/vis) spectroscopy.[21] […] EP shares an improved cLogP, but still relatively high from a desirable drug candidate (2.5–3.5). […] Compound 4 has a higher c log P, while compounds 5–10 have lower c log P values. To determine LiPE (lipophilicity efficiency), the following formula was used: LiPE = pIC50 – log P, according to established methods.[22],[23] […] The obtained EC50 values for the newly generated EP derivatives were within a similar range for other derivatives previously described against TNBC models.[17]
(§2) The following stable human cell lines were utilized for this study: SUM149 and MDA-MB-231 (breast cancer models) and BJ (human normal fibroblast, foreskin). Cells were purchased from BioIVT or the American Type Culture Collection (ATCC). Cells were cultured in F-12-Nutrient Mixture (SUM149), DMEM (MDA-MB-231), or EMEM (BJ) medium supplemented with 10% fetal bovine serum (Sigma-Aldrich, St. Louis, MO) and 2 mmol of L-glutamine, at 37 °C in a humidified 5% CO2 atmosphere (no antibiotics) as indicated by the manufacturer. Cell cultures were grown to 80–90% confluence before use, except where otherwise specified. Our cell lines are authenticated every 3 months using the CellCheck service (Idexx BioResearch, Westbrook, ME). Cells were tested for mycoplasma prior to use (MycoAlert detection Kit Lonza LT07–318) and discarded if they tested positive. A cell proliferation assay was performed using the CellTiter-Glo (Promega Corp., Madison, WI) luminescent cell viability assay kit. Cells were detached with trypsin, counted, and seeded in white polystyrene flat-bottom sterile 96-well tissue culture-treated plates (catalog no. 3917, Corning, Glendale, Arizona) and incubated overnight at 37 °C. MDA-MB231, SUM149, and BJ cells were seeded into 96-well plates at concentrations experimentally determined (0.4 × 10^4, 0.25 × 10^4, and 0.3 × 10^4 cells per well, respectively) to ensure logarithmic growth during the duration of the experiment and to prevent adverse effects on cell growth by DMSO exposure. The plates were incubated for 12 h before treatment. Stock solutions of test compounds (10 mM in DMSO) in nine 3-fold serial dilutions were dispensed. The final concentration of DMSO was 0.3% (v/v) in each well. The positive control used was staurosporine (10 μM) as the kill-all control, and the negative control used is DMSO as we have published. Staurosporine is a potent alkaloid inducer of various cell death modalities but primarily apoptosis, making it a reliable positive control for viability assays. The plates were incubated for 72 h and then quenched with CTG at 50 μL per well at RT. Plates were then incubated at RT for 20 min and centrifuged at 1000 rpm for 1 min. Luminescence was read on a CLARIOstar Plus plate reader (BMG LabTech, Ortenberg, Germany).
Three or four technical replicates were conducted for each experimental condition, and a minimum of three independent experiments were conducted for each assay. In vitro ADME values were expressed as mean ± standard deviation (SD) of at least three independent experiments. One-way analysis of variance (ANOVA) was adopted for comparisons among groups using the GraphPad Prism 10.2.3 (GraphPad Software, San Diego, CA). A difference of P < 0.05 was considered as statistically significant. […]

Another data set concerns MDA-MB-231. Briefly: CellTiter-Glo 72 h cytotoxicity assay, MDA-MB-231. Particulars: Homo sapiens, CTG assay, read-out: MDA-MB231 (EC50). In kind it is cell-based. On the procedure:
as §2
(§3) Three or four technical replicates were conducted for each experimental condition, and a minimum of three independent experiments were conducted for each assay. In vitro ADME values were expressed as mean ± standard deviation (SD) of at least three independent experiments. One-way analysis of variance (ANOVA) was adopted for comparisons among groups using the GraphPad Prism 10.2.3 (GraphPad Software, San Diego, CA). A difference of P < 0.05 was considered as statistically significant. Data are expressed as mean ± SEM. For CTG, the mean luminescence of each experimental treatment group was normalized as a percentage of the mean intensity of untreated controls (DMSO as vehicle). EC50 values were calculated from dose–response curve fitting via nonlinear regression using GraphPad Prism 10.2.3 (GraphPad Software, San Diego, CA). A therapeutic index (TI) between normal and tumor cell lines can be determined (EC50 non-neoplastic cell line BJ)/(EC50 cancer cell line). In vivo studies were analyzed using mixed-effects regression models to compare the changes in tumor volume over time by treatment group. Tumor volume reduction was compared using ANOVA with repeated measures, and all data was considered significant when P < 0.05.
Background: ATP-based viability assays read luminescence as a measure of living cells.

A short description of data set [1]: Aqueous solubility by UV/vis absorbance. Particulars: kinetic from dmso stock. In kind it is physicochemical.
Description: as §1
Briefly, clear 96-well PS plates with lids (catalog no. 3903, Corning, Glendale, Arizona) were used for spectrophotometric determination of absorbance with a CLARIOstar Plus plate reader (BMG LabTech, Ortenberg, Germany) to determine at which concentration the compounds are precipitating out of solution. Decrease in transmittance of 2% or higher was considered significant. Compound solutions of 10 mM in DMSO were prepared followed by a serial dilution series, which were vortexed to ensure the solutions were homogeneous. The 96-well plate was then prepared with distilled H2O and allowed to equilibrate for 1.5 h. Then, the plate was placed in a CLARIOstar Plus plate reader or Cytation C10 (Biotek, Agilent) and set to detect absorbance at 220–700 nm. Each well was read individually. Three replicate assays were conducted for each experimental condition, and a minimum of three independent experiments were conducted.

In another data set the test system is BJ. Briefly: CellTiter-Glo 72 h cytotoxicity assay, BJ normal fibroblasts. Particulars: Homo sapiens, CTG assay, noncancerous fibroblasts. In kind it is cell-based. The method, then:
as §2, §3

Data set [2] in a line: Caco-2 permeability assay. The class given is in vitro ADME. Particulars: human. On the procedure:
It was performed in the 96-well Transwell system with a modified method.[36] Caco-2 cells were maintained at 37 °C in a humidified incubator with an atmosphere of 5% CO2. The cells were cultured in MEM containing 20% FBS in […], 100 units/mL penicillin, and 100 μg/mL of streptomycin. The Caco-2 cells were seeded onto inserts of a 96-well plate at a density of 0.5 × 10^5 cells/insert and cultured in the MEM containing 20% FBS for 7 days. Each cultured monolayer on the 96-well plate was washed twice with HBSS/HEPES (10 mM, pH 7.4). The permeability assay was initiated by the addition of each compound solution (10 μmol/L) into inserts (apical side, A) or receivers (basolateral side, B). The Caco-2 cell monolayers were incubated for 2 h at 37 °C. Fractions were collected from receivers (if apical to basal permeability) or inserts (if basal to apical permeability), and concentrations were assessed by UPLC/MS (Waters; Milford, MA). All compounds were tested in triplicates. The A → B (or B → A) apparent permeability coefficients ([…]) of each compound were calculated using the equation Pappa = dQ/dt × 1/AC0. The flux of a drug across the monolayer is dQ/dt (μmol/s). The initial drug concentration on the apical side is C0 (μmol/L). The surface area of the monolayer is A (cm^2).
(Caco-2 monolayers are a common model of the intestinal barrier.)

Data set [3] in a line: Simulated gastric fluid (SGF) stability. The class given is in vitro ADME. Particulars: simulated gi fluid; simulated gastric fluid; read-out: SGF stability t1/2 (converted). On the procedure:
The simulated gastric fluid (SGF) assay is an important element in determining the overall drug-like potential of compounds.[29],[30] Anecdotal studies of oral consumption of extracts by humans indicate positive outcomes of digestion of mixtures of EP and its related natural products found in G. lucidum.[2] […] Chlorambucil was used as positive control as previously described.[32],[33] […] Caco-2 permeability studies were conducted to validate and to provide information on EP’s ability to cross the intestinal barrier and its potential for interactions with drug transporters.[36]−[39] The rate of transport in both directions (A-B and B-A) across the cell monolayer enables an efflux ratio (B-A/A-B) to be determined, enabling us to determine if a compound undergoes active efflux (efflux ratio ≥2).

Data set [4] in a line: Plasma stability assay (mouse). Particulars: male, Balb/c, mouse, plasma.
Description: Briefly, pooled blood from 3 animals for experiment (male Balb/c 6–8w from the division of laboratory animal medicine in-house breeding colony) was collected, and the heparinized plasma was prepared. Plasma and test compounds were added to individual wells of a 96-well microtiter plate. Compounds were incubated at 37 °C for the provided time points. All tests were performed in triplicates. The test compound was incubated with plasma at six different time points. The reaction was terminated by methanol containing an internal standard. After centrifugation, the concentration of the test compound in the supernatant was quantified by LC-MS/MS.
Plasma stability assay: Briefly, pooled blood from 3 animals for experiment (male Balb/c 6-8w
from the division of laboratory animal medicine in-house breeding colony) was collected, and
the heparinized plasma was prepared. Plasma and test compounds were added to the individual
wells of a 96-well microtiter plate. Compounds were incubated at 37°C for the provided time
points. All tests were performed in triplicates. Then, the test compound was incubated with
plasma at six different time points. The reaction was terminated by the addition of methanol
containing an internal standard. After centrifugation, the concentration of the test compound in
the supernatant was quantified by LC-MS/MS. The percentage of test compound remaining at
compounds are known to be metabolized by plasma esterases,1 and were also incubated with
each batch of test compound.
A standard protocol and MS method was used for the plasma stability experiment. The extraction
procedure for plasma/tissue samples and the spiked plasma/tissue calibration standards were
identical: A 25 µL of study sample or spiked plasma/tissue calibration standard was added to
individual pre-labeled micro-centrifuge tubes followed by 100 µL of internal standard prepared
in Acetonitrile (Albendazole, 500 ng/mL) was added except for blank, where 100 µL of
Acetonitrile was added. Samples were vortexed for 5 minutes. Samples were centrifuged for 5
minutes at a speed of 4000 rpm at 4°C. Following centrifugation, 100 µL of clear supernatant
was transferred in 96 well plates and analyzed using LC-MS/MS mode. The LC system
comprises of a binary pump that can mix two mobile phases: A = Water+0.1% formic acid; B =
acetonitrile +0.1%formic acid. The system was operated in gradient mode using a 6 minute
min, 10-90% A to B in 5.5-6 min, and then hold at this gradient, using a Phenomenex Luna, 150
X 4.6 mm, 5 µm column. Source Parameter: positive, Ion Spray Voltage 5500, Temperature
550C, interface heater on.
Data set [5] is described as follows: Plasma stability assay (human).

With `CC(C)[C@@H](C)/C=C/[C@@H](C)[C@H]1CC[C@H]2C3=CC=C4C[C@@H](O)CC[C@]4(C)[C@H]3CC[C@]12C` [Compound 1, Ergosterol], the EC50 with SUM149 is 61 µM; with MDA-MB-231, > 120 µM. In the data set with SUM149, the half-maximal inhibitory concentration (IC50) was 61.7 µM. Moreover, the solubility at […] in data set [1] (distilled water, distilled H2O, UV/vis, read-out: solubility limit) is 0.59 µg/mL (≈ 1.49 µM).
For `C=CC(=O)O[C@H]1CC[C@]2(C)[C@H]3CC[C@]4(C)[C@@H]([C@H](C)/C=C/[C@H](C)C(C)C)CC[C@H]4[C@@]34C=C[C@]2(C1)OO4` [Compound 4], the half-maximal effective concentration (EC50) with SUM149 was 31 µM; with MDA-MB-231 it was 47.6 µM; in the data set with BJ, 92.5 µM. Besides, the IC50 with SUM149 was 31.6 µM. The same molecule gave a solubility at […] in data set [1] (water) of 24.1 µg/mL (≈ 50 µM).
On the same counts, the results for `CC(C)[C@@H](C)C1OC1[C@@H](C)[C@H]1CC[C@@H]2[C@]1(C)CC[C@H]1[C@]23C=C[C@]2(C[C@@H](O)CC[C@]12C)OO3` (stereo partly drawn) [Compound 5] are 2.74 µM, 15.7 µM, 70.4 µM, 2.75 µM and 5.56 µg/mL (≈ 12.5 µM).
With `CC(C)[C@@H](C)C1OC1[C@@H](C)[C@H]1CC[C@@H]2[C@]1(C)CC[C@H]1[C@]23C=C[C@]2(C[C@@H](OS(=O)(=O)O)CC[C@]12C)OO3` (stereo partly drawn) [Compound 5a], the EC50 with SUM149 stood at 2.24 µM; with MDA-MB-231 it was 7.37 µM; in the data set with BJ it was 48 µM. In addition, in the data set on SUM149, the IC50 is 2.29 µM. Further, in data set [1] (water), the solubility at […] came out at 26.2 µg/mL (≈ 49.9 µM).
In the same order, the values of `CC(C)[C@@H](C)/C=C/[C@@H](C)[C@H]1CC[C@@H]2[C@]1(C)CC[C@H]1[C@@]23OO[C@@]2(C[C@@H](O)CC[C@]12C)C(O)C3O` (stereo partly drawn) [Compound 6] are 14.5 µM, 25.4 µM, 135 µM, 14.8 µM and 23.1 µg/mL (≈ 50 µM).
For `CC(C)[C@@H](C)C(O)C(O)[C@@H](C)[C@H]1CC[C@@H]2[C@]1(C)CC[C@H]1[C@@]23OO[C@@]2(C[C@@H](O)CC[C@]12C)C(O)C3O` (stereo partly drawn) [Compound 8], the results for the EC50 in the data set on SUM149, with MDA-MB-231 and in the data set on BJ were 6.42 µM, 29.7 µM and 172 µM, respectively. Moreover, the IC50 in the data set on SUM149 was 6.46 µM. This molecule yielded a solubility at […] in data set [1] (water) of 24.8 µg/mL (≈ 50 µM).
On the same counts, the results for `CC(C)[C@@H](C)/C=C/[C@@H](C)[C@H]1CC[C@@H]2[C@]1(C)CC[C@H]1[C@]23C=C[C@]2(C[C@@H](OS(=O)(=O)O)CC[C@]12C)OO3` [Compound 9] are 2.7 µM, 3.47 µM, 50 µM, 2.75 µM and 15.5 µg/mL (≈ 30.5 µM).
In the same order, the values of `CC(C)[C@@H](C)/C=C/[C@@H](C)[C@H]1CC[C@@H]2[C@]1(C)CC[C@H]1[C@@]23OO[C@@]2(C[C@@H](OS(=O)(=O)O)CC[C@]12C)C(OS(=O)(=O)O)C3OS(=O)(=O)O` (stereo partly drawn) [Compound 10] are 3.11 µM, 10.7 µM, 77.9 µM, 3.09 µM and 17.8 µg/mL (≈ 25.4 µM).
Turning to `NC(=O)N1c2ccccc2C=Cc2ccccc21` [carbamazepine, reference compound], in data set [2] (Caco-2, pH 7.4, Caco-2, read-out: efflux ratio (B2A/A2B)), the efflux ratio at 2 h, 10 µmol/L stood at 0.74. In data set [2] (Caco-2, pH 7.4, apical to basolateral), the Papp A→B at 2 h, 10 µmol/L was 37.6 ×10⁻⁶ cm/s. In addition, the Papp B→A at 2 h, 10 µmol/L in data set [2] (Caco-2, pH 7.4, basolateral to apical) came out at 27.7 ×10⁻⁶ cm/s.
Turning to `O=C(O)CCCc1ccc(N(CCCl)CCCl)cc1` [chlorambucil, reference compound], the half-life in data set [3] was 18.4 h.
`CC1CC(OC(=O)C(O)c2ccccc2)CC(C)(C)N1C` (stereo not drawn) [eucatropine, reference compound]: the half-life in data set [4] was 1.87 h; in data set [5], 0.41 h.

These data come from article PMC11375702, “Early Preclinical Studies of Ergosterol Peroxide and Biological Evaluation of Its Derivatives” (ACS Omega, 2024).
